Data on 85 compounds can be found in PubChem BioAssay AID504322 (Emory University Molecular Libraries Screening Center, 2011).

The source made the active and inactive calls. No rule for the calls is given here.

This assay relates to CHOP reporter cell assay, percent of control. The assay can be described thus: CHOP reporter inhibitor potency, dose response, cell-based (AID 504322).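 Also: CHO cells carrying a CHOP reporter stimulated with tunicamycin to induce ER stress; potency is for inhibition of the stress-induced reporter signal.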
The term IC50 denotes the concentration that gives 50% inhibition. For `COc1ccc(CC2(CO)CCN(CC3=Cc4cc(Cl)ccc4OC3)CC2)cc1`, the IC50 is 0.87 µM (inactive). For `N#CC1=C(N)N2C(=C(C#N)C1c1cccc(Br)c1)Nc1ccccc12` (stereo not given) the value was 5.07 µM (inactive); for `NC(=O)CC(NC(=O)Cc1cccc2ccccc12)c1ccc(NCc2ccc(F)cc2)c([N+](=O)[O-])c1` (stereo not given), > 10 µM (inactive). Take `COc1ccc(C(=O)c2c(C(F)(F)F)oc3c2C(=O)c2ccccc2C3=O)cc1`: the IC50 was 9.46 µM (inactive). Regarding `COc1ccc(CC(=O)Nc2cccc(-c3nnc(-c4cccc(C)c4)o3)c2)cc1OC`, the IC50 is 5.17 µM (inactive). Take `Nc1c(C(=O)Nc2ccc(S(=O)(=O)N3CCCC3)cc2)sc2nc3ccc(OC(F)(F)F)cc3cc12`: the IC50 was 6.79 µM (inactive).

Consider `COc1ccc(Cn2c(C)c(C)c(C#N)c2NC(=O)Nc2ccc(Cl)cc2)cc1`, for which the IC50 is 7.29 µM (inactive). For `C=C(C)COc1ccc(-c2n[nH]c(C)c2-c2ccc(Br)cc2)c(O)c1`, the IC50 was 9.53 µM (inactive). For `Cc1cccc(NC(=O)/C(C#N)=C/c2cn(CC(=O)NCc3ccco3)c3ccccc23)c1C` the value was > 10 µM (inactive); for `CC1(c2ccccc2)CC(C)(C)N2C(=O)C3(C(C#N)=C(N)Oc4cc(O)ccc43)c3cccc1c32` (stereo not given), 5.48 µM (inactive); for `O=C(Nc1ccc(Cl)c(C(F)(F)F)c1)NC1CC2CCCC(C1)N2Cc1ccccc1` (stereo not given), 7.84 µM (inactive). Next, `Cc1cc(/C=N/n2cnnc2)c(C)n1-c1ccc(OCc2ccc(Cl)cc2)cc1`: 0.38 µM; `CCc1ccc(/C=C2\SC(=S)N(CCCC(=O)Nc3ccccn3)C2=O)cc1`: 0.16 µM. As for `CCOc1ccc(N(CC(=O)Nc2cccc(Cl)c2)S(=O)(=O)c2c(C)noc2C)cc1`, the IC50 is 2.02 µM. Take `O=C(Nc1ccc(Cl)cc1)Nc1ccc(N2CCCC2)c(S(=O)(=O)Nc2ccccc2Cl)c1`: the IC50 was 5.95 µM (inactive).

Take `COc1ccc(NC(=O)/C(Cl)=C(/Cl)S(=O)Cc2ccccc2Cl)cn1` (stereo not given): the IC50 was 0.3 µM. For the compound `COc1ccc(C(=O)NC(=O)Nc2cc(C)ccn2)cc1`, the IC50 is 9.99 µM (inactive). For `NC(=S)n1[nH]c(-c2ccc([N+](=O)[O-])cc2)c(N=Nc2ccc(Cl)cc2)c1=O` the value was 5.74 µM (inactive).

As for `OC(COCC(F)(F)C(F)(F)C(F)(F)C(F)F)Cn1c2ccccc2c2ccccc21` (stereo not given), the IC50 is 2.39 µM.

In the case of `Cc1cc(C2=NNC(=NC3CC3)SC2)c(C)n1-c1ccccc1`, the IC50 was < 0.16 µM (inactive).

Take `CC(C)(C)c1ccc(CN2N=Nc3ccccc3S2(=O)=O)cc1`: the IC50 is 9.3 µM (inactive). With `CNC(=O)NC(=O)C(C)OC(=O)c1oc2ccccc2c1CSc1ccc(Cl)cc1` (stereo not given), the IC50 was > 10 µM (inactive). With `CCN(CC)CCn1c(SCC(=O)Nc2ccc(F)cc2)nc2c(sc3ccccc32)c1=O`, the IC50 was > 10 µM (inactive). On to `CCc1nc2c(cnn2-c2ccc(Cl)cc2)c(=O)n1-c1ccc(OC)cc1`, for which the IC50 is 8.14 µM (inactive). For `COC(=O)c1ccc2c(c1)C(C)(C)C(/C=C/c1ccccc1O)=[N+]2C` the value was > 10 µM (inactive); for `CN(C)c1ccc(-c2nc3ccccn3c2/N=C/c2ccc(Br)cc2)cc1`, 7.04 µM. Next, `Cc1cc2c(cc1C)CSC(c1c(O)ccc3ccccc13)SC2`: > 10 µM (inactive). For `Cc1cccc(NC(=O)CSc2nc(C)c(CC(=O)c3ccc(Br)cc3)c(C)c2C#N)c1C` the value was 5.95 µM (inactive); for `COc1ccc(NS(=O)(=O)c2ccc(O)c(NC(=O)c3cc4c(C)nn(-c5ccc(F)cc5)c4s3)c2)cc1`, 6.99 µM (inactive). In the case of `C[C@H]1C[C@@H](C)C(=O)[C@@H]([C@H](O)CC2CC(=O)NC(=O)C2)C1`, the IC50 is < 0.16 µM (inactive). As to `CCOC(=O)N1CCC(n2c(=S)[nH]c3cc(OCC)c(OCC)cc3c2=O)CC1`, the IC50 was 4.35 µM (inactive). Regarding `CC(C)(C)c1ccc(O)c(N=Cc2cc(Br)ccc2O)c1`, the IC50 is 9.15 µM (inactive). Next, `CCOC(=O)c1c(-n2c(C)cc(C=C3C(=O)NC(=S)NC3=O)c2C)sc2c1CCCC2`: 5.85 µM (inactive); `O=C(OCn1ncc(Cl)c(Cl)c1=O)c1cccc(C(F)(F)F)c1`: 4.44 µM. Next, `Oc1cccc(-c2nc3c4c(ncn3n2)-c2ccccc2CC42CCCC2)c1`: 5.25 µM (inactive); `CCCOc1ccc(N2C(=O)CC(SC(=NC)Nc3ccc(F)cc3)C2=O)cc1` (stereo not given): > 10 µM (inactive).

Regarding `CCCOC(=O)c1ccc(Oc2cn[nH]c2-c2ccc(OC)cc2O)cc1`, the IC50 is 9.32 µM (inactive). Consider `CC(C)(C)c1ccc(NC(=O)Nc2ccc(F)cc2)cc1`, for which the IC50 is > 10 µM (inactive). `COC(=O)CS(=O)(=O)c1nnc([C@H](Cc2ccccc2)NC(=O)OC(C)(C)C)o1`: the IC50 is 4.68 µM.

Take `Cc1ccc(Nc2nc(N)c([N+](=O)[O-])c(N3CCC(C)CC3)n2)cc1C`: the IC50 was 5.69 µM (inactive). For `CCOC(=O)COc1ccccc1/C=C\[N+](=O)[O-]` the value was 9.51 µM (inactive). Next, `COc1ccc(C(=O)Nc2nnc(-c3ccco3)s2)cc1`: 8.58 µM (inactive); `O=C(COc1ccc(Cl)cc1Cl)NCCC1=CCCCC1`: 7.77 µM (inactive); `O=C(c1nnsc1S(=O)(=O)c1ccc(Cl)cc1)N1CCOCC1`: 9.43 µM (inactive).

Regarding `O=c1[nH]c(=O)n(Cc2ccco2)c2c1C(C(F)(F)F)(C(F)(F)F)N=C(c1ccc(F)cc1)N2`, the IC50 is 6.5 µM (inactive).

Consider `O=C(N/N=C/c1cccs1)c1cccc(NC(=O)c2ccc(Cl)cc2)c1`, for which the IC50 is 4.15 µM. For `CC(C)(C)c1ccc(OCCNC(=S)Nc2ccccc2)cc1` the value was > 10 µM (inactive); for `CC(C)(C)c1ccc(-c2n[nH]c(=S)n2C2CCCC2)cc1`, 7.55 µM (inactive).

For the compound `CC1CCC(C(C)C)C(OC(=O)COC(=O)c2cc(O)ccc2N)C1` (stereo not given), the IC50 is 4.09 µM (inactive). `CCOc1ccc(-c2nc(CSCC(=O)NCc3ccco3)c(C)o2)cc1`: the IC50 was below 0.16 µM.

Take `C=CCn1c(O)c(C(CC)=Nc2ccc(N(CC)CC)cc2)c(=O)[nH]c1=O`: the IC50 was 2.56 µM. For `O=C1C(=O)c2ccc(-c3ccccc3)cc2-c2ccccc21` the value was 3.36 µM; for `CC[C@@H]1CC=C[C@H]2[C@H]1C(=O)N(Cc1ccccc1)[C@H]2c1ccoc1`, 9.62 µM (inactive); for `COc1cccc(NC(=O)CSc2nnc(-c3cc(C)n(-c4ccccc4)c3C)o2)c1`, 1.76 µM (inactive). Consider `FC(F)(F)c1cccc(NC(=S)Nc2ccc(Cl)cc2Cl)c1`, for which the IC50 is 6.1 µM (inactive).

`Fc1c(F)c(C(F)(F)F)c(F)c(F)c1N/N=C\c1cccs1`: the IC50 is 4.78 µM.

Take `CCOC(=O)c1cc([N+](=O)[O-])c([N+](=O)[O-])cc1NC(C)=O`: the IC50 was 4.24 µM.

As to `COc1cc([C@@H]2c3cc4c(cc3[C@@H](O)[C@@H](CO)[C@@H]2CO)OCO4)cc(OC)c1O[Si](C)(C)C(C)(C)C`, the IC50 is 6.02 µM (inactive). For `Cc1ccc(/C=N/N2C(=S)SC(C)(C)C2N(O)C(=O)Nc2ccc([N+](=O)[O-])cc2)cc1` (stereo not given) the value was 2.67 µM (inactive). Next, `Cc1cc(C)cc(OC2CCCCC2NS(=O)(=O)c2ccccc2)c1` (stereo not given): > 10 µM (inactive); `CC(C)(C)c1cc(S(=O)(=O)CCc2ccccn2)cc(C(C)(C)C)c1F`: 3.6 µM. For `O=C1C(Nc2ccccc2)=C/C(=N/S(=O)(=O)c2cccs2)c2ccccc21` the value was 2.6 µM. Turning to `OC(CNCCc1ccc(C(F)(F)F)cc1)COc1cccc2ccccc12` (stereo not given), the IC50 was < 0.16 µM (inactive). `CCC1CCc2c(sc(NC(=O)c3ccoc3C)c2C(N)=O)C1` (stereo not given): the IC50 is > 10 µM (inactive). Take `Cc1cc(-c2n[nH]c(=S)n2/N=C/C(Br)=C/c2ccccc2)n[nH]1`: the IC50 was > 10 µM (inactive). Next, `CCN1/C(=C/c2ccc3cc(C)ccc3[n+]2C)Sc2ccc3sccc3c21`: 5.29 µM (inactive); `Cc1ccc(-n2c(Cl)c(Cl)nc(Cl)c2=O)cc1`: 1.04 µM; `CCCCCCn1c(N2CCC(C)CC2)nc2c1c(=O)[nH]c(=O)n2C`: 5.4 µM (inactive). Next, `CNc1ccc2oc(C[C@H]3O[C@@]4(CC[C@H]3C)O[C@H]([C@H](C)C(=O)c3ccc[nH]3)[C@H](C)C[C@H]4C)nc2c1C(=O)O`: below 0.16 µM; `O=[N+]([O-])c1ccc(-c2nc(C(Cl)Cl)c3ccccc3n2)cc1`: 0.19 µM; `CCCNC(=O)c1nnsc1S(=O)(=O)c1ccc(Cl)cc1`: 2.02 µM (inactive). For `CCCc1cc(C(=O)Cc2ccc(F)cc2)c(O)cc1O` the value was 5.98 µM (inactive); for `COc1cc(/C=C(/C#N)c2nc3ccccc3[nH]2)ccc1OCC(=O)Nc1ccccc1C(C)C`, 4.54 µM. Take `Nc1cc(Cl)ccc1Oc1ccc(Cl)cc1`: the IC50 was 4.67 µM (inactive).

In the case of `Cn1cnc([N+](=O)[O-])c1S(=O)(=O)c1ccc(Cl)cc1`, the IC50 was 7.04 µM (inactive). For `CCCCCc1c(C)nc(NCc2ccccc2)[nH]c1=O` the value was 3.65 µM; for `Cc1nn(-c2ccccc2Cl)c(Cl)c1/C=N/Nc1nc2ccccc2s1`, below 0.16 µM; for `CC(C)C[C@H](NC(=O)c1[nH]cnc1C(=O)Nc1ccccc1)C(=O)OC(C)(C)C`, 5.95 µM (inactive). Next, `Nc1ccc(N2CCCCCC2)cc1`: > 10 µM (inactive). Next, `Cc1cc2c3c(c1)C(C)(c1ccccc1)CC(C)(C)N3C(=O)C21C(C#N)=C(N)OC2=C1C(=O)CC(C)(C)C2` (stereo not given): > 10 µM (inactive); `Clc1nssc1=Nc1ccc(Br)cc1`: 6.25 µM (inactive).

On to `COC(=O)C[C@]1(C(=O)OC)CN(C#N)N(c2ccc(Cl)cc2)C12c1ccccc1-c1ccccc12`, for which the IC50 was 2.16 µM. `CCCc1nc2oc(C(=O)c3ccccc3)c(N)c2c2c1COC(C)(C)C2`: the IC50 was > 10 µM (inactive). For `CCc1ccc(-c2nc(CN3CCC(C(=O)NCCN(CC)c4ccccc4)CC3)c(C)o2)cc1` the value was 3.46 µM (inactive); for `O=C(N/N=C/c1ccccn1)c1cc(-c2ccc3ccccc3c2)n[nH]1`, > 10 µM (inactive).
